{"source": "patent US20200247851A1", "about": "“Methods For Generating Epitopes For Binding To Recognition Molecules By Templated Assembly” (TriBiotica LLC, priority 2017, published 2020)", "molecules": {"B1": {"name": "GCAAAGACATCTGGACA CGCCACTTATAGTCTACGTGAAGCACTGCGCTGGAACAGCCTAAAAAAGGAGAAGG AGACTTAGAGGC (nucleic acid)", "DNA": "GCAAAGACATCTGGACACGCCACTTATAGTCTACGTGAAGCACTGCGCTGGAACAGCCTAAAAAAGGAGAAGGAGACTTAGAGGC", "modifications": "chemistry not given here"}}, "key": {"[1]": {"tested_on": "bilabeled fluorescent probe sequence", "details": "human EBV-transformed B lymphoid cell line, biotinylated W6/32, streptavidin bridge", "description": "Following incubation of cells (10^6/ml) with a biotin conjugate of primary antibody pan-specific for human Class I (W6/32) and washing in phosphate-buffered saline (pH 7.2; PBS), the cell preparation was treated with a large excess of unmodified tetravalent streptavidin (Sigma; 10 μl each of 100 μM streptavidin per 100 μl of cells at 10^6/ml) for 30 minutes at room temperature, and rewashed in PBS.\nFollowing this, a biotinylated template oligonucleotide was added, such that its terminal biotin group becomes bound to free sites on the surface streptavidin. […] The DNA template sequence used in this example corresponds to a transcribed segment of human papillomavirus (HPV), of sequence: 5′-Biotin-[sequence] […] As a control, a scrambled version of this sequence was used: 5′ Biotin-[sequence]"}, "trastuzumab [2]": {"tested_on": "trastuzumab", "assay": "ELISA of biotinylated mimotope peptides on streptavidin plates titrated with trastuzumab", "assay_type": "binding", "details": "400 nM biotinylated peptide coating, trastuzumab 2-fold serial dilutions", "protocol": "For intact mimotopes and their analogs, peptides with an N-terminal biotin label and a flexible spacer composed of serine and glycine residues (typically […]; SEQ ID NO:110) were used.\nELISA plates coated with tetravalent streptavidin were obtained for the assay, either from a commercial source (such as Thermofisher) or made by incubating polystyrene 96-well ELISA plates with solutions of streptavidin in PBS (1 μM) 16 hours/4° C., followed by blocking with a solution of bovine serum albumin (BSA) at 10 mg/ml in PBS pH 7.2, also for 16 hours/4° C. Plates were then emptied of solutions and washed three times with 100 μl PBS containing 0.05% Tween 20 (PBS-Tw20).\nA suitable dilution series of the biotinylated peptides of interest was prepared in PBS, and at least duplicates (or higher numbers of replicates) were added to pre-designated wells in 100 μl volumes, and the plate incubated for 2 hours at room temperature (covered in Saran wrap). […] After a 30 minute incubation, reactions were stopped with 1 M sulfuric acid, and results assessed with an automated plate reader for absorbances at 450 nm. Final data was compiled from averaged replicates for each determination with subtraction of absorbances observed in wells where no target peptide antigen was added. […]"}, "trastuzumab [3]": {"tested_on": "trastuzumab", "assay": "Flow analysis of trastuzumab mimotope placed on HER-2-negative MU89 cells via streptavidin bridge", "assay_type": "cell-based", "details": "MU89 melanoma cells, W6/32 biotinylated primary antibody, fluoresceinated goat anti-kappa read-out", "source_text": "In common with Example 11, for the repurposing of an antibody epitope by placement of a peptide mimotope on a cell surface, a surface marker for the cell type of interest was defined. […] The complex (biotinylated template-streptavidin-primary antibody) was then assembled on MU89 surface. Following that procedure and washing, biotinylated mimotope (Biotin-[…] ELWELSH; SEQ ID NO:35) was allowed to bind to the surface streptavidin. […] Subsequently, since trastuzumab is a humanized antibody with kappa light chains, a fluoresceinated goat anti-kappa antibody served to provide the final fluorescent read-out enabling flow analysis. […] However, it should be noted that while an amplification effect for fluorescent signal results from the multi-layered sandwich technique of this approach, the overall signal is ultimately linked to the level of expression of the primary antibody target."}, "trastuzumab [4]": {"tested_on": "trastuzumab", "details": "L1 Q substitution; cited from earlier work"}, "[5]": {"tested_on": "biotinylated anti-BRD7 Fab (bFab)", "assay": "Direct Binding Assay using streptavidin magnetic beads, denaturing gel read-out", "parameters": "species or system murine", "details": "with vs without bFab, PBSM", "protocol": "Aptamers were incubated with bFab (2.5-fold molar excess), then bound to SAMBs. Supernatants were taken, and the SAMBs washed 3 times. Bound material was eluted with 0.1 M NaOH, and then precipitated, washed, dried, and reconstituted before loading samples on a denaturing acrylamide gel.\nTo assess binding of 10th-cycle singlet aptamers to the selective agent (the Fab target), direct binding assays were carried out. Here, single-stranded aptamer preparations (self-annealed as usual) were incubated with or without biotinylated Fab fragments in PBSM, followed by adsorption onto streptavidin magnetic beads. After this incubation period, the beads were magnetically separated, and the supernatants retained. […]\nDespite successful in situ assembly of binary aptamers upon the target to which they were bound (as in Example 1), it could not be assumed that binary aptamers formed in solution would be capable of binding the same targets. This was assessed using the same aptamers as used in direct binding tests (Example 3; 228/10AptR1 and 229/10AptL3), but where the aptamers were initially ligated together by means of the same splint oligonucleotide as used in Example 1. […]"}}, "note": "No end group written: not given here. *: point of attachment. Biotin = O=C1N[C@H]2[C@H](CS[C@H]2CCCCC(=O)*)N1", "data": [{"molecule": "5′ Biotin-TAGCGCAAATAAGCCGCCAGAAC GATGATATAAACAGCATTAGGTAAGCTACAACA [control scrambled sequence, reference compound]", "values": [{"measurement": "fluorescence signal of bilabeled probe hybridized to surface template", "setting": "[1]", "result": "not"}]}, {"molecule": "5′-Biotin-TAACTGTCAAAAGCCACTGTGTC CTGAAGAAAAGCAAAGACATCTGGACAAAAAGC", "values": [{"measurement": "fluorescence signal of bilabeled probe hybridized to surface template", "setting": "[1]", "result": "significant signal"}]}, {"molecule": "Bio-SGGGSGGGQLGPYELWEL CH (Biotin-SGGGSGGGQLGPYELWELCH) [cysteine-modified mimotope]", "values": [{"measurement": "recognition by Trastuzumab compared with the unmodified mimotope", "setting": "trastuzumab [2]", "result": "almost the same extent"}, {"measurement": "slope of trastuzumab titration curve, less than that seen for the unmodified peptide", "setting": "trastuzumab [2]", "result": "approximately 10%"}]}, {"molecule": "Bio-SGGGSGGGQLGPYELWELSH (Biotin-SGGGSGGGQLGPYELWELSH) [unmodified mimotope]", "values": [{"measurement": "fluorescent signal from trastuzumab", "setting": "trastuzumab [3]", "result": "clear-cut fluorescent signal"}]}, {"molecule": "QLGPYEL WELSH (QLGPYELWELSH; segment of the mimotope) [mimotope for trastuzumab]", "values": [{"measurement": "binding affinity relative to the initial mimotope LLGPYELWEL SH", "setting": "trastuzumab [4]", "result": "higher binding affinity"}]}, {"molecule": "B1", "values": [{"measurement": "binding to biotinylated Fab (bound material eluted from streptavidin magnetic beads)", "setting": "[5]", "result": "not"}]}]}
